In US9474755B2, “GLP-1 receptor modulators” (Receptos, Inc., priority 2014, dated 2016):

target: T1, GLP-1R (Homo sapiens, UniProt P43220); experiment: EC20 GLP-1(9-36) PAM cAMP Assay: dose response of compound in the presence of fixed concentration of GLP-1(9-36); type: cell-based; details: GLP-1R CRE-bla CHO-K1 cells, in presence of fixed concentration of GLP-1(9-36), 30 min at 37° C.
T1 construct: host or cells: CRE-bla CHO-K1
Method in brief: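 GLP-1R CRE-bla CHO-K1 cells in HBSS/10 mM Hepes/0.1% BSA, pH 7.4, with IBMX were given a 12-point compound dose-response plus a fixed EC20 level of GLP-1(9-36) for 30 min at 37° C. cAMP was measured by luminescence, converted via a standard curve, and EC50 and Emax were fitted by non-linear regression.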

T1 sequence (P43220 24-463): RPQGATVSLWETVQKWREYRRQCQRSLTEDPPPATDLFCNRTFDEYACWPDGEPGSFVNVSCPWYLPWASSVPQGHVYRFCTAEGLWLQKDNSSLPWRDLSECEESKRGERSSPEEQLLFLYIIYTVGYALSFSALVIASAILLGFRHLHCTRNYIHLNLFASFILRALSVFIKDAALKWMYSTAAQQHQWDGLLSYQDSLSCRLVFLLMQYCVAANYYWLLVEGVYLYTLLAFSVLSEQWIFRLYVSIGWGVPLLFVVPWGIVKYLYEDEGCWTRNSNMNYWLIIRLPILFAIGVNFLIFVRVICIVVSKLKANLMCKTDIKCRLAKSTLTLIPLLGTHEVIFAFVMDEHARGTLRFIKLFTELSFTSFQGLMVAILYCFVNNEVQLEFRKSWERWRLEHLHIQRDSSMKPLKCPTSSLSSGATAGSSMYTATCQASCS
T1 sequence (P01275 100-127 partner limits assumed): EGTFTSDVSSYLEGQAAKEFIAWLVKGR

Row | Compound | EC50 [nM]
1 | CC[C@H]1CC[C@H](C2CC=C(c3cnc(-c4ccc(C[C@H](NC(=O)c5ccc(C(C)(C)C)s5)C(=O)NS(C)(=O)=O)cc4)nc3)CC2)CC1 (mixture of isomers) [Compound 109, 5-(tert-butyl)-N—((S)-3-(4-(5-((1RS,1′r,4′RS)-4′-ethyl-[1,1′-bi(cyclohexan)]-3-en-4-yl)pyrimidin-2-yl)phenyl)-1-(methylsulfonamido)-1-oxopropan-2-yl)thiophene-2-carboxamide] | < 500
2 | CC[C@H]1CC[C@H](C2CC=C(c3cnc(-c4ccc(C[C@H](NC(=O)c5ccccc5)C(=O)N5CC(C(=O)O)C5)cc4)nc3)CC2)CC1 (some centres unmarked) [Compound 99] | 500 to 2500
3 | CCCC1CCC(C2CC=C(c3cnc(-c4ccc(C[C@H](NC(=O)c5ccc(C(C)(C)C)s5)C(=O)N[C@H](C(=O)O)C(C)C)cc4)nc3)CC2)CC1 (some centres unmarked) [Compound 75] | 500 to 2500
4 | C[C@@H](NC(=O)[C@H](Cc1ccc(-c2ncc(C3=CCC(C(C)(C)C)CC3)cn2)cc1)NC(=O)c1ccc(C(C)(C)C)s1)C(=O)O (some centres unmarked) [Compound 56] | < 500
5 | CC(C)(C)c1ccc(C(=O)N[C@@H](Cc2ccc(-c3ncc(C4=CCC(C(F)(F)F)CC4)cn3)cc2)C(=O)N2CC(C(=O)O)C2)s1 (some centres unmarked) [Compound 37] | 500 to 2500
6 | CCc1ccc(C(=O)N[C@@H](Cc2ccc(-c3ncc(C4=CCC([C@H]5CC[C@H](CC)CC5)CC4)cn3)cc2)C(=O)N2CC(C(=O)O)C2)s1 (some centres unmarked) [Compound 93] | < 500
7 | CCCC1CCC(C2CC=C(c3cnc(-c4ccc(C[C@H](NC(=O)c5cc6cc(OC)ccc6[nH]5)C(=O)N5CC(C(=O)O)C5)cc4)nc3)CC2)CC1 (some centres unmarked) [Compound 33] | 500 to 2500
8 | CC[C@H]1CC[C@H](C2CC=C(c3cnc(-c4ccc(C[C@H](NC(=O)c5ccc(C(C)(C)C)s5)C(=O)NCC5CCNC5)cc4)nc3)CC2)CC1 (some centres unmarked) [Compound 108] | 500 to 2500
9 | CC1CC=C(c2cnc(-c3ccc(C[C@H](NC(=O)c4ccc(C(C)(C)C)s4)C(=O)N[C@H](C)C(=O)O)cc3)nc2)CC1 (some centres unmarked) [Compound 55] | 2500 to 5000
10 | CCCCCC1CCC(C2CC=C(c3cnc(-c4ccc(C[C@H](NC(=O)c5ccc(C(C)(C)C)s5)C(=O)N[C@H](C)C(=O)O)cc4)nc3)CC2)CC1 (some centres unmarked) [Compound 2] | 5000 to 10000
11 | CCCC1CCC(C2CCC(c3cnc(-c4ccc(C[C@H](NC(=O)c5ccc(C6(C)CC6)cc5)C(=O)N5CC(C(=O)O)C5)cc4)nc3)CC2)CC1 (some centres unmarked) [Compound 25] | 2500 to 5000
12 | CCCC1CC=C(c2cnc(-c3ccc(C[C@H](NC(=O)c4ccc(C(C)(C)C)s4)C(=O)N4CC(C(=O)O)C4)cc3)nc2)CC1 (some centres unmarked) [Compound 39] | 500 to 2500
13 | CCCC1CCC(C2CC=C(c3cnc(-c4ccc(C[C@H](NC(=O)c5ccc(C(C)=O)cc5)C(=O)N5CC(C(=O)O)C5)cc4)nc3)CC2)CC1 (some centres unmarked) [Compound 30] | 500 to 2500
14 | CCCc1ccc(C(=O)N[C@@H](Cc2ccc(-c3ncc(C4=CCC(C5CCC(CCC)CC5)CC4)cn3)cc2)C(=O)N2CC(C(=O)O)C2)cc1 (some centres unmarked) [Compound 22] | < 500
15 | CCC(C)(C)c1ccc(C(=O)N[C@@H](Cc2ccc(-c3ncc(C4=CCC([C@H]5CC[C@H](CC)CC5)CC4)cn3)cc2)C(=O)N2CC(C(=O)O)C2)cc1 (some centres unmarked) [Compound 101] | < 500
16 | CC1(C)CCC(C2CC=C(c3cnc(-c4ccc(C[C@H](NC(=O)c5ccc(C(C)(C)C)s5)C(=O)O)cc4)nc3)CC2)CC1 (some centres unmarked) [Compound 122] | 500 to 2500
17 | CCCC1CCC(C2CC=C(c3cnc(-c4ccc(C[C@H](NC(=O)c5ccc(C(C)(C)C)s5)C(=O)N[C@H](C(=O)O)[C@@H](C)O)cc4)nc3)CC2)CC1 (some centres unmarked) [Compound 74] | < 500
18 | CCC1CCC(C2CC=C(c3cnc(-c4ccc(C[C@H](NC(=O)c5ccc(C(C)(C)C)s5)C(=O)N[C@H](C)C(=O)O)cc4)nc3)CC2)CC1 (some centres unmarked) [Compound 70] | < 500
19 | CCCc1ccc(C2CC=C(c3cnc(-c4ccc(C[C@H](NC(=O)c5ccc(C(C)(C)C)s5)C(=O)O)cc4)nc3)CC2)cc1 (some centres unmarked) [Compound 121] | < 500
20 | CC(C)(C)c1ccc(C(=O)N[C@@H](Cc2ccc(-c3ncc(C4=CCC(C5CCCCC5)CC4)cn3)cc2)C(=O)O)s1 (some centres unmarked) [Compound 120] | 500 to 2500
